The compounds below were run on windgrass (assay: Test C postemergence herbicide test). Settings: Postemergence, 500 g ai/ha; scale 0 to 100.
Assay type: in vivo, Apera spica-venti
How it was run: (§1)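 Visual rating, 0 (no effect) to 100 (complete control), vs. controls at 12–14 d in greenhouse. Postemergence: 1–4-leaf plants, 2–18 cm. Paddy: flooded, barnyardgrass at 2-leaf stage.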

Row | SMILES | Windgrass plant response rating
1 | CCn1nc(C(C)(C)C)cc1C(=O)Nc1cccc(OC(F)(F)F)c1 [Compound 272] | 85
2 | CCn1nc(C2(C)CC2)cc1C(=O)Nc1cccc(C(=O)N2CC=CC2)c1 [Compound 304] | 45

Same assay, conditions: Postemergence; 250 g ai/ha; scale 0 to 100, 0 no effect, 100 complete control

Row | SMILES | Plant response rating, Windgrass
3 | CCOC(=O)c1ccc(F)c(NC(=O)c2cc(C3(C)CC3)nn2CC)c1 [Compound 296] | 65
4 | CCn1nc(C2(C)CC2)cc1C(=O)Nc1cccc(C(=O)N2CC=CC2)c1 [Compound 304] | 40

Same assay, conditions: Postemergence; 500 g ai/ha; scale 0 to 100, 0 no effect, 100 complete control

Row | SMILES | Plant response rating, Windgrass
5 | C=CCOc1cccc(NC(=O)c2cc(C(C)(C)C)nn2CC)c1 [Compound 412] | 65

Same assay, conditions: postemergence, 125 g ai/ha; scale 0 to 100

Row | SMILES | Plant response rating, Windgrass
6 | CCOC(=O)c1ccc(F)c(NC(=O)c2cc(C3(C)CC3)nn2CC)c1 [Compound 296] | 50
7 | C=CCOc1cccc(NC(=O)c2cc(C(C)(C)C)nn2CC)c1 [Compound 412] | 45
8 | CCn1nc(C(C)(C)C)cc1C(=O)Nc1cccc(OC(F)(F)F)c1 [Compound 272] | 70
9 | CCn1nc(C2(C)CC2)cc1C(=O)Nc1cccc(C(=O)N2CC=CC2)c1 [Compound 304] | 35

Same assay, conditions: postemergence; 62 g ai/ha; scale 0 to 100

Row | SMILES | Plant response rating, Windgrass
10 | CCOC(=O)c1ccc(F)c(NC(=O)c2cc(C3(C)CC3)nn2CC)c1 [Compound 296] | 45
11 | C=CCOc1cccc(NC(=O)c2cc(C(C)(C)C)nn2CC)c1 [Compound 412] | 40
12 | CCn1nc(C(C)(C)C)cc1C(=O)Nc1cccc(OC(F)(F)F)c1 [Compound 272] | 60
13 | CCn1nc(C2(C)CC2)cc1C(=O)Nc1cccc(C(=O)N2CC=CC2)c1 [Compound 304] | 35

What follows are compounds tested on winter barley (assay: Test C postemergence herbicide test). Settings: Postemergence, 500 g ai/ha; scale 0 to 100.
Assay type: in vivo, Hordeum vulgare
How it was run: as §1

Row | SMILES | Barley, Winter plant response rating
14 | C=CCOc1cccc(NC(=O)c2cc(C(C)(C)C)nn2CC)c1 [Compound 412] | 50
15 | CCn1nc(C(C)(C)C)cc1C(=O)Nc1cccc(OC(F)(F)F)c1 [Compound 272] | 35
16 | CCn1nc(C2(C)CC2)cc1C(=O)Nc1cccc(C(=O)N2CC=CC2)c1 [Compound 304] | 45

Same assay, conditions: Postemergence; 250 g ai/ha; scale 0 to 100, 0 no effect, 100 complete control

Row | SMILES | Plant response rating, Barley, Winter
17 | CCOC(=O)c1ccc(F)c(NC(=O)c2cc(C3(C)CC3)nn2CC)c1 [Compound 296] | 45
18 | C=CCOc1cccc(NC(=O)c2cc(C(C)(C)C)nn2CC)c1 [Compound 412] | 40
19 | CCn1nc(C(C)(C)C)cc1C(=O)Nc1cccc(OC(F)(F)F)c1 [Compound 272] | 35
20 | CCn1nc(C2(C)CC2)cc1C(=O)Nc1cccc(C(=O)N2CC=CC2)c1 [Compound 304] | 35

Same assay, conditions: postemergence, 125 g ai/ha; scale 0 to 100 (0 no effect, 100 complete control)

Row | SMILES | Plant response rating, Barley, Winter
21 | CCOC(=O)c1ccc(F)c(NC(=O)c2cc(C3(C)CC3)nn2CC)c1 [Compound 296] | 40
22 | C=CCOc1cccc(NC(=O)c2cc(C(C)(C)C)nn2CC)c1 [Compound 412] | 35
23 | CCn1nc(C(C)(C)C)cc1C(=O)Nc1cccc(OC(F)(F)F)c1 [Compound 272] | 35
24 | CCn1nc(C2(C)CC2)cc1C(=O)Nc1cccc(C(=O)N2CC=CC2)c1 [Compound 304] | 35

Same assay, conditions: postemergence; 31 g ai/ha; scale 0 to 100

Row | SMILES | Plant response rating, Barley, Winter
25 | CCOC(=O)c1ccc(F)c(NC(=O)c2cc(C3(C)CC3)nn2CC)c1 [Compound 296] | 30

Same assay, conditions: postemergence; 62 g ai/ha; scale 0 to 100 (0 no effect, 100 complete control)

Row | SMILES | Plant response rating, Barley, Winter
26 | CCOC(=O)c1ccc(F)c(NC(=O)c2cc(C3(C)CC3)nn2CC)c1 [Compound 296] | 35
27 | C=CCOc1cccc(NC(=O)c2cc(C(C)(C)C)nn2CC)c1 [Compound 412] | 30
28 | CCn1nc(C(C)(C)C)cc1C(=O)Nc1cccc(OC(F)(F)F)c1 [Compound 272] | 35
29 | CCn1nc(C2(C)CC2)cc1C(=O)Nc1cccc(C(=O)N2CC=CC2)c1 [Compound 304] | 35

The compounds below were run on canarygrass (assay: Test C postemergence herbicide test). Settings: Postemergence, 500 g ai/ha; scale 0 to 100.
Assay type: in vivo, Phalaris minor
How it was run: as §1

Row | SMILES | Canarygrass plant response rating
30 | CCn1nc(C(C)(C)C)cc1C(=O)Nc1cccc(OC(F)(F)F)c1 [Compound 272] | 55
31 | CCn1nc(C2(C)CC2)cc1C(=O)Nc1cccc(C(=O)N2CC=CC2)c1 [Compound 304] | 45

Same assay, conditions: Postemergence; 250 g ai/ha; scale 0 to 100, 0 no effect, 100 complete control

Row | SMILES | Plant response rating, Canarygrass
32 | CCOC(=O)c1ccc(F)c(NC(=O)c2cc(C3(C)CC3)nn2CC)c1 [Compound 296] | 55
33 | C=CCOc1cccc(NC(=O)c2cc(C(C)(C)C)nn2CC)c1 [Compound 412] | 60
34 | CCn1nc(C(C)(C)C)cc1C(=O)Nc1cccc(OC(F)(F)F)c1 [Compound 272] | 40
35 | CCn1nc(C2(C)CC2)cc1C(=O)Nc1cccc(C(=O)N2CC=CC2)c1 [Compound 304] | 45

Same assay, conditions: Postemergence; 500 g ai/ha; scale 0 to 100, 0 no effect, 100 complete control

Row | SMILES | Plant response rating, Canarygrass
36 | C=CCOc1cccc(NC(=O)c2cc(C(C)(C)C)nn2CC)c1 [Compound 412] | 60

Same assay, conditions: postemergence, 125 g ai/ha; scale 0 to 100

Row | SMILES | Plant response rating, Canarygrass
37 | CCOC(=O)c1ccc(F)c(NC(=O)c2cc(C3(C)CC3)nn2CC)c1 [Compound 296] | 40
38 | C=CCOc1cccc(NC(=O)c2cc(C(C)(C)C)nn2CC)c1 [Compound 412] | 45
39 | CCn1nc(C(C)(C)C)cc1C(=O)Nc1cccc(OC(F)(F)F)c1 [Compound 272] | 35
40 | CCn1nc(C2(C)CC2)cc1C(=O)Nc1cccc(C(=O)N2CC=CC2)c1 [Compound 304] | 40

Same assay, conditions: postemergence; 31 g ai/ha; scale 0 to 100

Row | SMILES | Plant response rating, Canarygrass
41 | CCOC(=O)c1ccc(F)c(NC(=O)c2cc(C3(C)CC3)nn2CC)c1 [Compound 296] | 30

Same assay, conditions: postemergence; 62 g ai/ha; scale 0 to 100

Row | SMILES | Plant response rating, Canarygrass
42 | CCOC(=O)c1ccc(F)c(NC(=O)c2cc(C3(C)CC3)nn2CC)c1 [Compound 296] | 30
43 | C=CCOc1cccc(NC(=O)c2cc(C(C)(C)C)nn2CC)c1 [Compound 412] | 45
44 | CCn1nc(C(C)(C)C)cc1C(=O)Nc1cccc(OC(F)(F)F)c1 [Compound 272] | 35
45 | CCn1nc(C2(C)CC2)cc1C(=O)Nc1cccc(C(=O)N2CC=CC2)c1 [Compound 304] | 40

These compounds were tested on green foxtail (assay: Test C postemergence herbicide test). Settings: Postemergence, 500 g ai/ha; scale 0 to 100.
Assay type: in vivo, Setaria viridis
How it was run: as §1

Row | SMILES | Foxtail, Green plant response rating
46 | CCn1nc(C(C)(C)C)cc1C(=O)Nc1cccc(OC(F)(F)F)c1 [Compound 272] | 60
47 | CCn1nc(C2(C)CC2)cc1C(=O)Nc1cccc(C(=O)N2CC=CC2)c1 [Compound 304] | 60

Same assay, conditions: Postemergence; 250 g ai/ha; scale 0 to 100, 0 no effect, 100 complete control

Row | SMILES | Plant response rating, Foxtail, Green
48 | CCOC(=O)c1ccc(F)c(NC(=O)c2cc(C3(C)CC3)nn2CC)c1 [Compound 296] | 60
49 | C=CCOc1cccc(NC(=O)c2cc(C(C)(C)C)nn2CC)c1 [Compound 412] | 65
50 | CCn1nc(C(C)(C)C)cc1C(=O)Nc1cccc(OC(F)(F)F)c1 [Compound 272] | 45
51 | CCn1nc(C2(C)CC2)cc1C(=O)Nc1cccc(C(=O)N2CC=CC2)c1 [Compound 304] | 50

Same assay, conditions: Postemergence; 500 g ai/ha; scale 0 to 100, 0 no effect, 100 complete control

Row | SMILES | Plant response rating, Foxtail, Green
52 | C=CCOc1cccc(NC(=O)c2cc(C(C)(C)C)nn2CC)c1 [Compound 412] | 65

Same assay, conditions: postemergence, 125 g ai/ha; scale 0 to 100

Row | SMILES | Plant response rating, Foxtail, Green
53 | CCOC(=O)c1ccc(F)c(NC(=O)c2cc(C3(C)CC3)nn2CC)c1 [Compound 296] | 50
54 | C=CCOc1cccc(NC(=O)c2cc(C(C)(C)C)nn2CC)c1 [Compound 412] | 60
55 | CCn1nc(C(C)(C)C)cc1C(=O)Nc1cccc(OC(F)(F)F)c1 [Compound 272] | 40
56 | CCn1nc(C2(C)CC2)cc1C(=O)Nc1cccc(C(=O)N2CC=CC2)c1 [Compound 304] | 45

Same assay, conditions: postemergence; 62 g ai/ha; scale 0 to 100

Row | SMILES | Plant response rating, Foxtail, Green
57 | CCOC(=O)c1ccc(F)c(NC(=O)c2cc(C3(C)CC3)nn2CC)c1 [Compound 296] | 40
58 | C=CCOc1cccc(NC(=O)c2cc(C(C)(C)C)nn2CC)c1 [Compound 412] | 45
59 | CCn1nc(C(C)(C)C)cc1C(=O)Nc1cccc(OC(F)(F)F)c1 [Compound 272] | 35
60 | CCn1nc(C2(C)CC2)cc1C(=O)Nc1cccc(C(=O)N2CC=CC2)c1 [Compound 304] | 40

The compounds below were run on blackgrass (assay: Test C postemergence herbicide test). Settings: Postemergence, 500 g ai/ha; scale 0 to 100.
Assay type: in vivo, Alopecurus myosuroides
How it was run: as §1

Row | SMILES | Blackgrass plant response rating
61 | C=CCOc1cccc(NC(=O)c2cc(C(C)(C)C)nn2CC)c1 [Compound 412] | 65
62 | CCn1nc(C(C)(C)C)cc1C(=O)Nc1cccc(OC(F)(F)F)c1 [Compound 272] | 65
63 | CCn1nc(C2(C)CC2)cc1C(=O)Nc1cccc(C(=O)N2CC=CC2)c1 [Compound 304] | 95

Same assay, conditions: Postemergence; 250 g ai/ha; scale 0 to 100, 0 no effect, 100 complete control

Row | SMILES | Plant response rating, Blackgrass
64 | CCOC(=O)c1ccc(F)c(NC(=O)c2cc(C3(C)CC3)nn2CC)c1 [Compound 296] | 75
65 | C=CCOc1cccc(NC(=O)c2cc(C(C)(C)C)nn2CC)c1 [Compound 412] | 65
66 | CCn1nc(C(C)(C)C)cc1C(=O)Nc1cccc(OC(F)(F)F)c1 [Compound 272] | 45
67 | CCn1nc(C2(C)CC2)cc1C(=O)Nc1cccc(C(=O)N2CC=CC2)c1 [Compound 304] | 70

Same assay, conditions: postemergence, 125 g ai/ha; scale 0 to 100

Row | SMILES | Plant response rating, Blackgrass
68 | CCOC(=O)c1ccc(F)c(NC(=O)c2cc(C3(C)CC3)nn2CC)c1 [Compound 296] | 65
69 | C=CCOc1cccc(NC(=O)c2cc(C(C)(C)C)nn2CC)c1 [Compound 412] | 45
70 | CCn1nc(C(C)(C)C)cc1C(=O)Nc1cccc(OC(F)(F)F)c1 [Compound 272] | 45
71 | CCn1nc(C2(C)CC2)cc1C(=O)Nc1cccc(C(=O)N2CC=CC2)c1 [Compound 304] | 50

Same assay, conditions: postemergence; 31 g ai/ha; scale 0 to 100

Row | SMILES | Plant response rating, Blackgrass
72 | CCOC(=O)c1ccc(F)c(NC(=O)c2cc(C3(C)CC3)nn2CC)c1 [Compound 296] | 45

Same assay, conditions: postemergence; 62 g ai/ha; scale 0 to 100

Row | SMILES | Plant response rating, Blackgrass
73 | CCOC(=O)c1ccc(F)c(NC(=O)c2cc(C3(C)CC3)nn2CC)c1 [Compound 296] | 60
74 | C=CCOc1cccc(NC(=O)c2cc(C(C)(C)C)nn2CC)c1 [Compound 412] | 45
75 | CCn1nc(C(C)(C)C)cc1C(=O)Nc1cccc(OC(F)(F)F)c1 [Compound 272] | 35
76 | CCn1nc(C2(C)CC2)cc1C(=O)Nc1cccc(C(=O)N2CC=CC2)c1 [Compound 304] | 60

Source: patent publication US20060069132A1, “Azolecarboxamide herbicides” (priority 2004, published 2006)
